Source: US8361487B1, “Ant controllers and method for application thereof” (BASF Aktiengesellschaft, priority 1999, dated 2013)

Each molecule was assayed on Coptotermes formosanus Shiraki (assay: Test Example 1: termite-killing test on treated filter paper). Conditions: mortality class; 1 ml of a 500 ppm solution on filter paper, seven days after inoculation, triplicate group of 10 insects.
Type: in vivo
Experimental: A filter paper was spread in a glass dish having a diameter of 9 cm, onto which was dropped 1 ml of a 500 ppm solution of the ant controller of the present invention. Then, the filter paper was inoculated with Coptotermes formosanus Shiraki. Seven days after the inoculation, percentage of dead insects was investigated, from which mortality was calculated. The test was carried out with triplicate group of 10 insects.
In the case of `O=C(NNC(Cc1ccccc1)c1ccccc1)Nc1ccc(OC(F)(F)F)cc1` (racemic) [Compound 85], the Termite-killing effect was “C (89-80)”. With `N#Cc1cccc(CC(NNC(=O)Nc2ccc(OC(F)(F)F)cc2)c2ccccc2)c1` (centres unmarked) [Compound 121] the Termite-killing effect was “C (89-80)”. With `O=C(C=NN(Cc1ccccc1)c1ccccc1)Nc1ccc(OC(F)(F)F)cc1` [Compound 122] the Termite-killing effect was “D (79-50)”. With `Cc1cccc(C(Cc2ccccc2)=NNC(=O)Nc2ccc(OC(F)(F)F)cc2)c1` [Compound 39] the Termite-killing effect was “A (100)”. In the case of `N#Cc1ccc(CC(NNC(=O)Nc2ccc(S(=O)(=O)C(F)(F)F)cc2)c2cccc(Cl)c2)cc1` (centres unmarked) [Compound 94], the Termite-killing effect was “A (100)”. In the case of `N#Cc1ccc(CC(=NNC(=O)Nc2ccc(S(=O)(=O)C(F)(F)F)cc2)c2ccc(F)cc2)cc1` [Compound 78], the Termite-killing effect was “A (100)”. In the case of `O=C(CNN(Cc1ccc(Cl)cc1)c1ccccc1)Nc1ccc(OC(F)(F)F)cc1` [Compound 144], the Termite-killing effect was “B (99-90)”. For `N#Cc1ccc(CC(=NNC(=S)Nc2ccc(OC(F)(F)F)cc2)c2cccc(C(F)(F)F)c2)cc1` [Compound 45], the Termite-killing effect was “A (100)”. In the case of `O=C(NNC(Cc1ccc(Br)cc1)c1ccccc1)Nc1ccc(Cl)cc1` (centres unmarked) [Compound 110], the Termite-killing effect was “B (99-90)”. For `O=C(NN=C(Cc1ccccc1)c1cccc(C(F)(F)F)c1)Nc1ccc(Cl)cc1` [Compound 42], the Termite-killing effect was “A (100)”. `O=C(NNC(Cc1ccc(F)cc1)c1ccccc1)Nc1ccc(OC(F)(F)F)cc1` (centres unmarked) [Compound 109] was tested, and the Termite-killing effect was “C (89-80)”. With `FC(F)(F)Oc1ccc(NC(=S)NNC(Cc2ccc(Cl)cc2)c2ccccc2)cc1` (centres unmarked) [Compound 98] the Termite-killing effect was “A (100)”. With `N#Cc1ccc(CN(N=CC(=O)Nc2ccc(OC(F)(F)F)cc2)c2cccc(Cl)c2)cc1` [Compound 131] the Termite-killing effect was “C (89-80)”. For `CC(=O)N(NC(=O)Nc1ccc(OC(F)(F)F)cc1)C(Cc1ccc(C#N)cc1)c1cccc(Cl)c1` (centres unmarked) [Compound 101], the Termite-killing effect was “A (100)”. In the case of `O=C(NN=C(Cc1ccc(Cl)cc1)c1ccccc1)Nc1ccc(OC(F)(F)F)cc1` [Compound 4], the Termite-killing effect was “A (100)”. `N#Cc1ccc(CC(=NNC(=O)Nc2ccc(OC(F)(F)F)cc2)c2cccc(C(F)(F)F)c2)cc1` [Compound 82] was tested, and the Termite-killing effect was “B (99-90)”. For `N#Cc1ccc(CC(=NNC(=O)Nc2ccc(OC(F)(F)F)cc2)c2cccc(Br)c2)cc1` [Compound 27], the Termite-killing effect was “A (100)”. In the case of `O=C(NN=C(Cc1ccccc1)c1cccc(Br)c1)Nc1ccc(OC(F)(F)F)cc1` [Compound 25], the Termite-killing effect was “D (79-50)”. For `O=C(NNC(Cc1ccc(Cl)cc1)c1cccc(Cl)c1)Nc1ccc(OC(F)(F)F)cc1` (racemic) [Compound 90], the Termite-killing effect was “A (100)”. With `CC(C)COC(C(=NNC(=O)Nc1ccc(OC(F)(F)F)cc1)c1ccccc1)c1ccccc1` (racemic) [Compound 71] the Termite-killing effect was “A (100)”. For `N#Cc1ccc(CC(NNC(=O)Nc2ccc([S+]([O-])C(F)(F)F)cc2)c2cccc(Cl)c2)cc1` (centres unmarked) [Compound 93], the Termite-killing effect was “D (79-50)”. `CC(=O)OC(C(=NNC(=O)Nc1ccc(OC(F)(F)F)cc1)c1ccccc1)c1ccccc1` (racemic) [Compound 72] was tested, and the Termite-killing effect was “A (100)”. With `N#Cc1ccc(CN(NCC(=O)Nc2ccc(OC(F)(F)F)cc2)c2cccc(C(F)(F)F)c2)cc1` [Compound 158] the Termite-killing effect was “C (89-80)”. `N#Cc1ccc(CC(NNC(=O)Nc2ccc(OC(F)(F)F)cc2)c2cccc(C(F)(F)F)c2)cc1` (single isomer, unassigned) [Compound 117] was tested, and the Termite-killing effect was “A (100)”. With `CC(C(=NNC(=S)Nc1ccc(OC(F)(F)F)cc1)c1ccccc1)c1ccccc1` (racemic) [Compound 65] the Termite-killing effect was “C (89-80)”. In the case of `Cc1cccc(C(Cc2ccc(C#N)cc2)=NNC(=O)Nc2ccc(Cl)cc2)c1` [Compound 40], the Termite-killing effect was “D (79-50)”. With `CN(C(=O)C=NN(Cc1ccc(C#N)cc1)c1cccc(C(F)(F)F)c1)c1ccc(Cl)cc1` [Compound 141] the Termite-killing effect was “D (79-50)”. `N#Cc1ccc(CN(N=CC(=O)Nc2ccc(OC(F)(F)F)cc2)c2ccccc2)cc1` [Compound 125] was tested, and the Termite-killing effect was “A (100)”. In the case of `N#Cc1ccc(C(O)C(=NNC(=O)Nc2ccc(Cl)cc2)c2ccccc2)cc1` (racemic) [Compound 62], the Termite-killing effect was “A (100)”. In the case of `N#Cc1ccc(CC(NNC(=O)Nc2ccc(OC(F)(F)F)cc2)c2ccccc2)cc1` (racemic) [Compound 87], the Termite-killing effect was “C (89-80)”. `Cc1cccc(N(Cc2ccc(C#N)cc2)N=CC(=O)Nc2ccc(Cl)cc2)c1` [Compound 136] was tested, and the Termite-killing effect was “A (100)”. `N#Cc1ccc(CN(N=CC(=O)Nc2ccc(OC(F)(F)F)cc2)c2cccc(F)c2)cc1` [Compound 135] was tested, and the Termite-killing effect was “B (99-90)”. With `O=C(NN=C(Cc1ccc([N+](=O)[O-])cc1)c1ccccc1)Nc1ccc(Cl)cc1` [Compound 10] the Termite-killing effect was “A (100)”. In the case of `CC(C(=NNC(=O)Nc1ccc(Cl)cc1)c1ccccc1)c1ccc(Cl)cc1` (centres unmarked) [Compound 53], the Termite-killing effect was “B (99-90)”. For `CC(C(=NNC(=O)Nc1ccc(OC(F)(F)F)cc1)c1ccccc1)c1ccc(Cl)cc1` (centres unmarked) [Compound 54], the Termite-killing effect was “A (100)”. With `N#Cc1ccc(CC(=NNC(=S)Nc2ccc(Cl)cc2)c2ccccc2)cc1` [Compound 6] the Termite-killing effect was “A (100)”. With `N#Cc1ccc(CC(=NNC(=O)Nc2ccc(Cl)cc2)c2cccc(C(F)(F)F)c2)cc1` [Compound 83] the Termite-killing effect was “D (79-50)”. For `O=[N+]([O-])c1ccc(CC(=NNC(=S)Nc2ccc(OC(F)(F)F)cc2)c2ccccc2)cc1` [Compound 13], the Termite-killing effect was “A (100)”. With `N#Cc1ccc(CC(=NNC(=O)Nc2ccc([S+]([O-])C(F)(F)F)cc2)c2cccc(C(F)(F)F)c2)cc1` (centres unmarked) [Compound 81] the Termite-killing effect was “A (100)”. In the case of `N#Cc1ccc(CC(NNC(=S)Nc2ccc(OC(F)(F)F)cc2)c2cccc(Cl)c2)cc1` (centres unmarked) [Compound 99], the Termite-killing effect was “A (100)”. With `N#Cc1ccc(CC(=NNC(=O)Nc2ccc(S(=O)(=O)C(F)(F)F)cc2)c2cccc(Br)c2)cc1` [Compound 30] the Termite-killing effect was “A (100)”. For `N#Cc1ccc(CC(=NNC(=O)Nc2ccc(OC(F)(F)F)cc2)c2cccc(I)c2)cc1` [Compound 37], the Termite-killing effect was “A (100)”. In the case of `CN(N=C(c1ccccc1)C(O)c1ccccc1)C(=O)Nc1ccc(Cl)cc1` (racemic) [Compound 74], the Termite-killing effect was “A (100)”. In the case of `N#Cc1ccc(CN(NCC(=O)Nc2ccc(Cl)cc2)c2cccc(C(F)(F)F)c2)cc1` [Compound 157], the Termite-killing effect was “A (100)”. With `N#Cc1ccc(CN(N=CC(=O)Nc2ccc(Cl)cc2)c2cccc(C(F)(F)F)c2)cc1` [Compound 138] the Termite-killing effect was “A (100)”. With `Cc1cccc(N(Cc2ccc(C#N)cc2)NCC(=O)Nc2ccc(OC(F)(F)F)cc2)c1` [Compound 156] the Termite-killing effect was “B (99-90)”. With `O=C(NN=C(c1ccccc1)C(O)c1ccc(Cl)cc1)Nc1ccc(OC(F)(F)F)cc1` (racemic) [Compound 61] the Termite-killing effect was “A (100)”. With `N#Cc1ccc(CC(=NNC(=S)Nc2ccc(OC(F)(F)F)cc2)c2cccc(Cl)c2)cc1` [Compound 20] the Termite-killing effect was “A (100)”. In the case of `CC(C(=NNC(=O)Nc1ccc(OC(F)(F)F)cc1)c1ccccc1)c1ccccc1` (mixture of isomers) [Compound 50], the Termite-killing effect was “A (100)”. For `O=C(NN=C(Cc1ccc(Cl)cc1)c1cccc(F)c1)Nc1ccc(Cl)cc1` [Compound 34], the Termite-killing effect was “A (100)”. `COC(C(=NNC(=O)Nc1ccc(OC(F)(F)F)cc1)c1ccccc1)c1ccccc1` (racemic) [Compound 67] was tested, and the Termite-killing effect was “A (100)”. With `O=C(CNN(Cc1ccc([N+](=O)[O-])cc1)c1cccc(Cl)c1)Nc1ccc(OC(F)(F)F)cc1` [Compound 150] the Termite-killing effect was “C (89-80)”. For `CC(C)OC(C(=NNC(=O)Nc1ccc(OC(F)(F)F)cc1)c1ccccc1)c1ccccc1` (racemic) [Compound 69], the Termite-killing effect was “B (99-90)”. For `Cc1cccc(C(Cc2ccccc2)=NNC(=O)Nc2ccc(Cl)cc2)c1` [Compound 38], the Termite-killing effect was “B (99-90)”. In the case of `N#Cc1ccc(CC(=NNC(=O)Nc2ccc(Cl)cc2)c2cccc(Cl)c2)cc1` [Compound 17], the Termite-killing effect was “A (100)”. For `N#Cc1ccc(CC(=NNC(=O)Nc2ccc(SC(F)(F)F)cc2)c2cccc(C(F)(F)F)c2)cc1` [Compound 80], the Termite-killing effect was “A (100)”. `CN(N=C(c1ccccc1)C(O)c1ccccc1)C(=O)Nc1ccc(OC(F)(F)F)cc1` (racemic) [Compound 75] was tested, and the Termite-killing effect was “A (100)”. In the case of `O=C(NN=C(Cc1ccccc1)c1ccccc1)Nc1ccc(OC(F)(F)F)cc1` [Compound 2], the Termite-killing effect was “B (99-90)”. In the case of `N#Cc1ccc(CN(N=CC(=O)Nc2ccc(Cl)cc2)c2ccccc2)cc1` [Compound 124], the Termite-killing effect was “D (79-50)”. With `O=C(NN=C(c1ccccc1)C(O)c1ccccc1)Nc1ccc(Cl)cc1` (centres unmarked) [Compound 57] the Termite-killing effect was “D (79-50)”. `O=C(NN=C(Cc1ccccc1)c1cccc(F)c1)Nc1ccc(Cl)cc1` [Compound 31] was tested, and the Termite-killing effect was “A (100)”. `O=C(NNC(Cc1ccc(Br)cc1)c1ccccc1)Nc1ccc(OC(F)(F)F)cc1` (centres unmarked) [Compound 111] was tested, and the Termite-killing effect was “D (79-50)”. For `O=C(NN=C(Cc1ccccc1)c1cccc(Cl)c1)Nc1ccc(OC(F)(F)F)cc1` [Compound 15], the Termite-killing effect was “B (99-90)”. With `CC(C(=NNC(=O)Nc1ccc(Br)cc1)c1ccccc1)c1ccccc1` (centres unmarked) [Compound 49] the Termite-killing effect was “C (89-80)”. With `N#Cc1ccc(CC(NNC(=O)Nc2ccc(OC(F)(F)F)cc2)c2cccc(Cl)c2)cc1` (centres unmarked) [Compound 91] the Termite-killing effect was “A (100)”. For `N#Cc1ccc(CN(NCC(=O)Nc2ccc(OC(F)(F)F)cc2)c2cccc(F)c2)cc1` [Compound 154], the Termite-killing effect was “B (99-90)”. With `O=C(C=NN(Cc1ccc([N+](=O)[O-])cc1)c1cccc(Cl)c1)Nc1ccc(OC(F)(F)F)cc1` [Compound 129] the Termite-killing effect was “A (100)”. With `N#Cc1ccc(CC(=NNC(=S)Nc2ccc(OC(F)(F)F)cc2)c2ccccc2)cc1` [Compound 7] the Termite-killing effect was “A (100)”.
